From ChEMBL document CHEMBL2074496, “Altered drug disposition of the platelet activating factor antagonist apafant in mdr1a knockout mice” (Eur J Pharm Sci, 2002) come the findings set out here.

The target of data set [1] is ATP-dependent translocase ABCB1 (Homo sapiens, UniProt P08183). Description: TP_TRANSPORTER: transepithelial transport (basal to apical) in Caco-2 cells. The data set is classed as functional, cell-based. For orientation: Passage across Caco-2 layers is used to estimate intestinal permeability.
Chain of ATP-dependent translocase ABCB1 (Homo sapiens, UniProt P08183) (P08183 whole entry): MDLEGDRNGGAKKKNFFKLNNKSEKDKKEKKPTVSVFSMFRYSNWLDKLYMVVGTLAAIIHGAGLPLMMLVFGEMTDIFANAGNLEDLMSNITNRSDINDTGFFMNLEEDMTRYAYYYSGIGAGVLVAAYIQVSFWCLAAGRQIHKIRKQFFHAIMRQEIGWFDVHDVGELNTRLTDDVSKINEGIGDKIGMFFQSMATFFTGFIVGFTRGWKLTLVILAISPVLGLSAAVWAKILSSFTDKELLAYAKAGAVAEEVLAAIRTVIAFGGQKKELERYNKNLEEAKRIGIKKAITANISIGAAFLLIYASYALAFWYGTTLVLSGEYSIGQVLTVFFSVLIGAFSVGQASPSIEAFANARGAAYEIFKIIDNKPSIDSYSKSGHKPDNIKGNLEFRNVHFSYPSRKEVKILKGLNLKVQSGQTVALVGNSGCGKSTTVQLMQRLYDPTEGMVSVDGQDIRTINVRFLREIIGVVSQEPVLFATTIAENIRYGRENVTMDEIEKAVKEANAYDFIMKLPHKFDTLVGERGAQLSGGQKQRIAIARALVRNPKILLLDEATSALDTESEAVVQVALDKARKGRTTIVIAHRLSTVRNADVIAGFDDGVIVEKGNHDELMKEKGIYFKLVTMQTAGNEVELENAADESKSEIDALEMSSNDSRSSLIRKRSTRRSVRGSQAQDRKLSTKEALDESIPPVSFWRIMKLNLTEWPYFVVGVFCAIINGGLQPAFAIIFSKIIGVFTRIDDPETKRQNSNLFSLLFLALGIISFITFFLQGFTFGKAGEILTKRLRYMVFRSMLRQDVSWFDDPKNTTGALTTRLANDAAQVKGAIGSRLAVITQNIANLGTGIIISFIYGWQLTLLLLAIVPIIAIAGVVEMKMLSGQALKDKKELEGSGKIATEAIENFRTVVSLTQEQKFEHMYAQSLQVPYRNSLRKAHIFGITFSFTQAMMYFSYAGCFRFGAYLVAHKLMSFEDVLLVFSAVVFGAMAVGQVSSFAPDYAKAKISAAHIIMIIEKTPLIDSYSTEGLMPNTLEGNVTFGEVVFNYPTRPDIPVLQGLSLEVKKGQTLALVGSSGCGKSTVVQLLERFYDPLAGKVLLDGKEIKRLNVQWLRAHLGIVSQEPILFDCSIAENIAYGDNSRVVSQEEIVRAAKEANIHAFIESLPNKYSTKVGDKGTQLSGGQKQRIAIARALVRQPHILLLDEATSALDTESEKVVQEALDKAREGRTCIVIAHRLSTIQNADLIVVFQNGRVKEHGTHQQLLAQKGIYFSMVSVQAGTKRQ
Data set [2] addresses ATP-dependent translocase ABCB1 (Mus musculus, UniProt P21447). Kind of data set: TP_TRANSPORTER: increase in brain concentration in mdr1a(-/-) mouse. The data set is classed as functional, organism-based. As to conditions: in vivo.

Chain of ATP-dependent translocase ABCB1 (Mus musculus, UniProt P21447) (P21447 whole entry): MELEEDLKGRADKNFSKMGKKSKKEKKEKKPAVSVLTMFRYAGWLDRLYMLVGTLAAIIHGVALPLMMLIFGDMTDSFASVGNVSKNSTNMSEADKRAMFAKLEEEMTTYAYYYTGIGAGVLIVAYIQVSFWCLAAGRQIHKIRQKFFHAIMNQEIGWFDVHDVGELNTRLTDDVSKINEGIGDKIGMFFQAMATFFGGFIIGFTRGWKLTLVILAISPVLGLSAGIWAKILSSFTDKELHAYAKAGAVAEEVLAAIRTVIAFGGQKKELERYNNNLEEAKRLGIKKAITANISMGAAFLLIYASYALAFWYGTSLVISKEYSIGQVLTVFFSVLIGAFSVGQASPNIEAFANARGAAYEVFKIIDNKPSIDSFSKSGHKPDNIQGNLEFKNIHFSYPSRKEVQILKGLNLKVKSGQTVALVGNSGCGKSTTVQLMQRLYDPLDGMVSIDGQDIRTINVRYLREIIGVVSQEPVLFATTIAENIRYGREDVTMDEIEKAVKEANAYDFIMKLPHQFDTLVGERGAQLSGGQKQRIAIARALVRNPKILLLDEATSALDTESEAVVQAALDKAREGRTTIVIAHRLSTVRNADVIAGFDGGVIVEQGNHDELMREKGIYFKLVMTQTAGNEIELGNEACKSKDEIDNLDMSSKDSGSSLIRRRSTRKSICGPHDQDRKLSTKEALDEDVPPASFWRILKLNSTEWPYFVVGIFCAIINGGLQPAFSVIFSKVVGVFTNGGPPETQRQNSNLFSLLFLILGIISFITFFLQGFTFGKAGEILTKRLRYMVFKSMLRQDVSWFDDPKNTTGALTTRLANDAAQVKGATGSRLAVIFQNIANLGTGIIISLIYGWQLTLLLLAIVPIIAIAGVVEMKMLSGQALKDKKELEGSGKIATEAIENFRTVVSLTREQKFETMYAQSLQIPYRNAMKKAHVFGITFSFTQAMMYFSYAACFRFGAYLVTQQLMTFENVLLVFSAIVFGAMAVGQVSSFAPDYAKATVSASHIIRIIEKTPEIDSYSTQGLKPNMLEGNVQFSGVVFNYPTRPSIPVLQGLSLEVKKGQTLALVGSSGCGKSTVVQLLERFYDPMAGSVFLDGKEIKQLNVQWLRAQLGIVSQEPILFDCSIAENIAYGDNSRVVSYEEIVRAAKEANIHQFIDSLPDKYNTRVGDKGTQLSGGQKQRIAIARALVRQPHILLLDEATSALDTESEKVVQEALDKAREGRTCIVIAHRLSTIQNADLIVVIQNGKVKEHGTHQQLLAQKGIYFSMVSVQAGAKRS

`Cc1nnc2n1-c1sc(CCC(=O)N3CCOCC3)cc1C(c1ccccc1Cl)=NC2` [APAFANT]: the Activity entry in data set [1] and in data set [2] was “substrate [+]” each time.
